Results taken from ChEMBL document CHEMBL5154798, “Structure-based discovery of receptor tyrosine kinase AXL degraders with excellent anti-tumor activity by selectively degrading AXL and inducing methuosis” (Eur J Med Chem, 2022).
Calls of active or inactive are those of the source. The rule behind the calls is not given here.

Key:
[1] = Cmax in male Sprague-Dawley rat at 2 mg/kg, iv administered as single dose measured by LC/MS/MS analysis; assay type: ADME, organism-based; set-up: dose 2 mg/kg, route iv; conditions: in vivo
[2] = AUC (0 to t) in male Sprague-Dawley rat at 20 mg/kg, po administered as single dose measured by LC/MS/MS analysis; assay type: ADME, organism-based; set-up: dose 20 mg/kg, route po; conditions: in vivo
[3] = Tmax in male Sprague-Dawley rat at 2 mg/kg, iv administered as single dose measured by LC/MS/MS analysis; assay type: ADME, organism-based; conditions: in vivo
[4] = Systemic toxicity in female BALB/c nude mouse xenografted with human MDA-MB-231 cells assessed as necrosis of lung tissue at 25 mg/kg, ip; assay type: organism-based; conditions: in vivo
[5] = system: Mus musculus; assay: In vivo induction of CRBN-mediated AXL degradation in mouse measured after 6 hrs; assay type: functional, organism-based
[6] = Oral bioavailability in male Sprague-Dawley rat at 20 mg/kg administered as single dose measured by LC/MS/MS analysis; assay type: ADME, organism-based; conditions: in vivo
[7] = Systemic toxicity in female BALB/c nude mouse xenografted with human MDA-MB-231 cells assessed as inflammatory cell infiltration in liver at 25 mg/kg, ip; assay type: organism-based; conditions: in vivo
[8] = Systemic toxicity in female BALB/c nude mouse xenografted with human MDA-MB-231 cells assessed as necrosis of liver tissue at 25 mg/kg, ip; assay type: organism-based; conditions: in vivo
[9] = system: MDA-MB-231; assay: Antiproliferative activity against human MDA-MB-231 cells highly expressing AXL after 72 hrs by MTT assay; conditions: MDA-MB-231, 72 h
[10] = Systemic toxicity in female BALB/c nude mouse xenografted with human MDA-MB-231 cells assessed as necrosis of spleen tissue at 25 mg/kg, ip; assay type: organism-based; conditions: in vivo
[11] = Systemic toxicity in female BALB/c nude mouse xenografted with human MDA-MB-231 cells assessed as inflammatory cell infiltration in lung at 25 mg/kg, ip; assay type: organism-based; conditions: in vivo
[12] = Systemic toxicity in female BALB/c nude mouse xenografted with human MDA-MB-231 cells assessed as inflammatory cell infiltration in spleen at 25 mg/kg, ip; assay type: organism-based; conditions: in vivo
[13] = system: MDA-MB-231; assay: Induction of macropinocytosis in human MDA-MB-231 cells assessed as co-localization of Rab7 with lucifer yellow measured by immunofluorescence assay; assay type: functional, cell-based
[14] = Systemic toxicity in female BALB/c nude mouse xenografted with human MDA-MB-231 cells assessed as inflammatory cell infiltration in kidney at 25 mg/kg, ip; assay type: organism-based; conditions: in vivo
[15] = Systemic toxicity in female BALB/c nude mouse xenografted with human MDA-MB-231 cells assessed as necrosis of heart tissue at 25 mg/kg, ip; assay type: organism-based; conditions: in vivo
[16] = system: MDA-MB-231; assay: Induction of cytoplasmic vacuolation in human MDA-MB-231 cells at 0.5 uM; assay type: functional, cell-based
[17] = system: MDA-MB-231; assay: Induction of macropinocytosis in human MDA-MB-231 cells measured by MitoTracker staining based fluorescence microscopy; assay type: functional, cell-based
[18] = system: 4T1; assay: Antiproliferative activity against mouse 4T1 cells highly expressing AXL after 72 hrs by MTT assay; conditions: 4T1, 72 h
[19] = system: MDA-MB-231; assay: Induction of macropinocytosis in human MDA-MB-231 cells assessed as co-localization of LAMP-1 with lucifer yellow measured by immunofluorescence assay; assay type: functional, cell-based
[20] = Toxicity in female BALB/c nude mouse xenografted with human MDA-MB-231 cells assessed as change in body wieght at 25 mg/kg, ip; assay type: organism-based; conditions: in vivo
[21] = AUC (0 to t) in male Sprague-Dawley rat at 2 mg/kg, iv administered as single dose measured by LC/MS/MS analysis; assay type: ADME, organism-based; set-up: dose 2 mg/kg, route iv; conditions: in vivo
[22] = Cytotoxicity against human MCF-10A cells after 72 hrs by MTT assay; assay type: toxicity, cell-based
[23] = system: 4T1; assay: Induction of cytoplasmic vacuolation in mouse 4T1 cells at 0.5 uM; assay type: functional, cell-based
[24] = Systemic toxicity in female BALB/c nude mouse xenografted with human MDA-MB-231 cells assessed as necrosis of kidney tissue at 25 mg/kg, ip; assay type: organism-based; conditions: in vivo
[25] = system: MDA-MB-231; assay: Antitumor activity against human MDA-MB-231 cells xenografted in female BALB/c nude mouse assessed as tumor growth inhibition at 25 mg/kg, ip; assay type: functional, organism-based
[26] = Clearance in male Sprague-Dawley rat at 2 mg/kg, iv administered as single dose measured by LC/MS/MS analysis; assay type: ADME, organism-based; conditions: male, Sprague-Dawley, in vivo
[27] = system: MDA-MB-231; assay: Induction of cytoplasmic vacuolation in human MDA-MB-231 cells at 1 uM in presence of 1 uM pan-caspase inhibitor Z-VAD-FMK; assay type: functional, cell-based
[28] = system: MDA-MB-231; assay: Induction of macropinocytosis in human MDA-MB-231 cells measured by LysoTracker staining based fluorescence microscopy; assay type: functional, cell-based
[29] = Half-life in male Sprague-Dawley rat at 2 mg/kg, iv administered as single dose measured by LC/MS/MS analysis; assay type: ADME, organism-based; conditions: in vivo
[30] = Tmax in male Sprague-Dawley rat at 20 mg/kg, po administered as single dose measured by LC/MS/MS analysis; assay type: ADME, organism-based; conditions: in vivo
[31] = Cytotoxicity against human GES1 cells after 72 hrs by MTT assay; assay type: toxicity, cell-based
[32] = Cmax in male Sprague-Dawley rat at 20 mg/kg, po administered as single dose measured by LC/MS/MS analysis; assay type: ADME, organism-based; set-up: dose 20 mg/kg, route po; conditions: in vivo
[33] = Half-life in male Sprague-Dawley rat at 20 mg/kg, po administered as single dose measured by LC/MS/MS analysis; assay type: ADME, organism-based; conditions: in vivo
[34] = Systemic toxicity in female BALB/c nude mouse xenografted with human MDA-MB-231 cells assessed as inflammatory cell infiltration in heart at 25 mg/kg, ip; assay type: organism-based; conditions: in vivo

SMILES: Nc1nc(Nc2ccc(CNC(=O)CCCCCCCNc3cccc4c3CN(C3CCC(=O)NC3=O)C4=O)cc2)nn1-c1ccc(-c2ccccc2)nn1 (centres undefined)
- Cmax [1]: 166 ng/mL
- AUC(0-t) [2]: 865 ng·h/mL
- Tmax [3]: 0.54 h
- Activity [4]: Non-Toxic
- Activity [5]: Active
- bioavailability [6]: 4.93%
- Activity [7]: Non-Toxic
- Activity [8]: Non-Toxic
- IC50 [9]: 10.3 µM
- Activity [10]: Non-Toxic
- Activity [11]: Non-Toxic
- Activity [12]: Non-Toxic
- Activity [13]: Active
- Activity [14]: Non-Toxic
- Activity [15]: Non-Toxic
- Activity [16]: Active
- Activity [17]: Active
- IC50 [18]: 5.53 µM
- Activity [19]: Active
- Activity [20]: Non-Toxic
- AUCt [21]: 2933.4 ng·h/mL
- IC50 at 72 h [22]: > 60 µM
- Activity [23]: Active
- Activity [24]: Non-Toxic
- TGI [25]: Active
- clearance [26]: 11.3 mL/min/kg
- Activity [27]: Active
- Activity [28]: Active
- t1/2 [29]: 0.72 h
- Tmax [30]: 1.89 h
- IC50 at 72 h [31]: > 60 µM
- Cmax [32]: 92 ng/mL
- half-life [33]: 2.37 h
- Activity [34]: Non-Toxic
